Patent US20250223268A1, “4-Methylsulfonylbenzamide Compound, Preparation Method, Herbicidal Composition And Use” (Jiangsu Flag Chemical Industry Co., Ltd., priority 2022, published 2025)

Columns and labels:
Assay type in all cases: in vivo
[1] = test system: Leptochloa chinensis; experiment: Greenhouse herbicidal activity and crop safety comparison (Test Example 2); settings: for inhibition at 150 g/ha: Dinebra chinensis, read-out: Leptochloa chinensis, control efficacy grading (fresh weight inhibition rate)
How it was run: (§1)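 Fresh weight inhibition, banded into grades A to E (E <20%), was rated 14-21 days after foliar spraying of 3-6 leaf plants, or 14-30 days after a soil spray applied 24 h post-sowing.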

[2] = test system: Oryza sativa subsp. japonica; experiment: as above
How it was run: as §1

[3] = test system: Oryza sativa subsp. indica; experiment: as above
How it was run: as §1

[4] = test system: Echinochloa crusgalli; experiment: as above; settings: for inhibition at 150 g/ha: Echinochloa crus-galli, read-out: Echinochloa crusgalli, control efficacy grading (fresh weight inhibition rate)
How it was run: as §1

[5] = test system: Leptochloa chinensis; experiment: Greenhouse herbicidal activity assay, post-emergence; settings: Post-emergence test, rate 150 g a.i./hm^2, grade by fresh weight inhibition rate; for pest or weed control at 150 g/ha: Dinebra chinensis, read-out: Control efficacy grade, Leptochloa chinensis
How it was run: (§2)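 Foliar spray at 3-6 leaves; pot-grown in nutrient soil in growth chamber; air-dried post-spray. Read-out at 14-21 d: fresh weight inhibition, graded A (≥80% to 100%) down to E (<20%); NT = not tested.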

[6] = test system: Cyperus iria; experiment: as above; settings: Post-emergence test, rate 150 g a.i./hm^2, grade by fresh weight inhibition rate; for pest or weed control at 150 g/ha: Cyperus iria, read-out: Control efficacy grade, Cyperus iria
How it was run: as §2

[7] = test system: Digitaria sanguinalis; experiment: as above; settings: Post-emergence test, rate 150 g a.i./hm^2, grade by fresh weight inhibition rate; for pest or weed control at 150 g/ha: Digitaria sanguinalis, read-out: Control efficacy grade, Digitaria sanguinalis
How it was run: as §2

[8] = test system: Eclipta prostrata; experiment: as above; settings: Post-emergence test, rate 150 g a.i./hm^2, grade by fresh weight inhibition rate; for pest or weed control at 150 g/ha: Eclipta prostrata, read-out: Control efficacy grade, Eclipta prostrata
How it was run: as §2

[9] = test system: Echinochloa crusgalli; experiment: as above; settings: Post-emergence test, rate 150 g a.i./hm^2, grade by fresh weight inhibition rate; for pest or weed control at 150 g/ha: Echinochloa crus-galli, read-out: Control efficacy grade, Echinochloa crusgalli
How it was run: as §2

Structure (SMILES) | inhibition at 150 g/ha ([1]; Rate 150 g/ha) | Oryza sativa subsp. japonica, grading of fresh weight inhibition rate (crop safety) ([2]; Rate 150 g/ha) | Oryza sativa subsp. indica, grading of fresh weight inhibition rate (crop safety) ([3]; Rate 150 g/ha) | inhibition at 150 g/ha ([4]; Rate 150 g/ha) | pest or weed control at 150 g/ha [5] | pest or weed control at 150 g/ha [6] | pest or weed control at 150 g/ha [7] | pest or weed control at 150 g/ha [8] | pest or weed control at 150 g/ha [9] | Leptochloa chinensis, control efficacy grading (fresh weight inhibition rate) ([1]; Rate 250 g/ha) | Oryza sativa subsp. japonica, grading of fresh weight inhibition rate (crop safety) ([2]; Rate 250 g/ha) | Oryza sativa subsp. indica, grading of fresh weight inhibition rate (crop safety) ([3]; Rate 250 g/ha) | Echinochloa crusgalli, control efficacy grading (fresh weight inhibition rate) ([4]; Rate 250 g/ha) | Control efficacy grade, Leptochloa chinensis [5] | Control efficacy grade, Cyperus iria [6] | Control efficacy grade, Digitaria sanguinalis [7] | Control efficacy grade, Eclipta prostrata [8] | Control efficacy grade, Echinochloa crusgalli [9] | Leptochloa chinensis, control efficacy grading (fresh weight inhibition rate) ([1]; Rate 150 g/ha) | Echinochloa crusgalli, control efficacy grading (fresh weight inhibition rate) ([4]; Rate 150 g/ha)
Cc1nnc(NC(=O)c2ccc(S(C)(=O)=O)c(S(=O)(=O)C(C)C)c2Cl)o1 [Compound 3-10, 2-chloro-3-(isopropylsulfonyl)-N-(5-methyl-1,3,4-oxadiazol-2-yl)-4-(methylsulfonyl)benzamide] | 80 to 100% | E (Fresh weight inhibition rate<20%) | E (Fresh weight inhibition rate<20%) | 80 to 100% | 80 to 100% | 80 to 100% | 80 to 100% | 80 to 100% | 80 to 100% |  |  |  |  |  |  |  |  |  |  | 
CCCCS(=O)(=O)c1c(S(C)(=O)=O)ccc(C(=O)Nc2nnc(C)o2)c1Cl [Compound 3-15] |  |  |  |  |  |  |  |  |  | A (Fresh weight inhibition rate≥80% to 100%) | E (Fresh weight inhibition rate<20%) | E (Fresh weight inhibition rate<20%) | A (Fresh weight inhibition rate≥80% to 100%) | B (Fresh weight inhibition rate≥260% to <80%) | B (Fresh weight inhibition rate≥260% to <80%) | B (Fresh weight inhibition rate≥260% to <80%) | A (Fresh weight inhibition rate≥80% to 100%) | B (Fresh weight inhibition rate≥260% to <80%) |  | 
Cc1nnc(NC(=O)c2ccc(S(C)(=O)=O)c(S(=O)(=O)CC(C)C)c2Cl)o1 [Compound 3-31] |  |  |  |  |  |  |  |  |  | A (Fresh weight inhibition rate≥80% to 100%) | E (Fresh weight inhibition rate<20%) | E (Fresh weight inhibition rate<20%) | A (Fresh weight inhibition rate≥80% to 100%) | A (Fresh weight inhibition rate≥80% to 100%) | A (Fresh weight inhibition rate≥80% to 100%) | A (Fresh weight inhibition rate≥80% to 100%) | A (Fresh weight inhibition rate≥80% to 100%) | B (Fresh weight inhibition rate≥260% to <80%) |  | 
Cc1nnc(NC(=O)c2ccc(S(C)(=O)=O)c(S(=O)(=O)CC3CC3)c2Cl)o1 [Compound 3-41] |  | E (Fresh weight inhibition rate<20%) | E (Fresh weight inhibition rate<20%) |  |  |  |  |  |  |  |  |  |  | A (Fresh weight inhibition rate≥80% to 100%) | A (Fresh weight inhibition rate≥80% to 100%) | A (Fresh weight inhibition rate≥80% to 100%) | A (Fresh weight inhibition rate≥80% to 100%) | A (Fresh weight inhibition rate≥80% to 100%) | A (Fresh weight inhibition rate≥80% to 100%) | A (Fresh weight inhibition rate≥80% to 100%)
Cc1nnc(NC(=O)c2ccc(S(C)(=O)=O)c(S(=O)(=O)C3CC3)c2Cl)o1 [Compound 3-81] |  | E (Fresh weight inhibition rate<20%) | E (Fresh weight inhibition rate<20%) |  |  |  |  |  |  |  |  |  |  | A (Fresh weight inhibition rate≥80% to 100%) | A (Fresh weight inhibition rate≥80% to 100%) | A (Fresh weight inhibition rate≥80% to 100%) | A (Fresh weight inhibition rate≥80% to 100%) | A (Fresh weight inhibition rate≥80% to 100%) | A (Fresh weight inhibition rate≥80% to 100%) | A (Fresh weight inhibition rate≥80% to 100%)
Cc1nnc(NC(=O)c2ccc(S(C)(=O)=O)c(S(=O)(=O)C3CCC3)c2Cl)o1 [Compound 3-86] |  | E (Fresh weight inhibition rate<20%) | E (Fresh weight inhibition rate<20%) |  |  |  |  |  |  |  |  |  |  | A (Fresh weight inhibition rate≥80% to 100%) | A (Fresh weight inhibition rate≥80% to 100%) | A (Fresh weight inhibition rate≥80% to 100%) | A (Fresh weight inhibition rate≥80% to 100%) | A (Fresh weight inhibition rate≥80% to 100%) | A (Fresh weight inhibition rate≥80% to 100%) | A (Fresh weight inhibition rate≥80% to 100%)
Cc1nnc(NC(=O)c2ccc(S(C)(=O)=O)c(S(=O)(=O)C3CCCC3)c2Cl)o1 [Compound 3-91] |  | E (Fresh weight inhibition rate<20%) | E (Fresh weight inhibition rate<20%) |  |  |  |  |  |  |  |  |  |  | A (Fresh weight inhibition rate≥80% to 100%) | A (Fresh weight inhibition rate≥80% to 100%) | A (Fresh weight inhibition rate≥80% to 100%) | A (Fresh weight inhibition rate≥80% to 100%) | A (Fresh weight inhibition rate≥80% to 100%) | A (Fresh weight inhibition rate≥80% to 100%) | A (Fresh weight inhibition rate≥80% to 100%)
Cc1nnc(NC(=O)c2ccc(S(C)(=O)=O)c(S(=O)(=O)CC(F)(F)F)c2Cl)o1 [Compound 3-101] |  | E (Fresh weight inhibition rate<20%) | E (Fresh weight inhibition rate<20%) |  |  |  |  |  |  |  |  |  |  | A (Fresh weight inhibition rate≥80% to 100%) | A (Fresh weight inhibition rate≥80% to 100%) | A (Fresh weight inhibition rate≥80% to 100%) | A (Fresh weight inhibition rate≥80% to 100%) | A (Fresh weight inhibition rate≥80% to 100%) | A (Fresh weight inhibition rate≥80% to 100%) | A (Fresh weight inhibition rate≥80% to 100%)
C=CCS(=O)(=O)c1c(S(C)(=O)=O)ccc(C(=O)Nc2nnc(C)o2)c1Cl [Compound 3-116] |  | E (Fresh weight inhibition rate<20%) | E (Fresh weight inhibition rate<20%) |  |  |  |  |  |  |  |  |  |  | A (Fresh weight inhibition rate≥80% to 100%) | C (Fresh weight inhibition rate≥40% to <60%) | A (Fresh weight inhibition rate≥80% to 100%) | A (Fresh weight inhibition rate≥80% to 100%) | A (Fresh weight inhibition rate≥80% to 100%) | A (Fresh weight inhibition rate≥80% to 100%) | A (Fresh weight inhibition rate≥80% to 100%)
CCCS(=O)(=O)c1c(S(C)(=O)=O)ccc(C(=O)Nc2nnco2)c1Cl [Compound 3-271, 2-chloro-4-(methylsulfonyl)-N-(1,3,4-oxadiazol-2-yl)-3-(propylsulfonyl)benzamide] | 80 to 100% | E (Fresh weight inhibition rate<20%) | E (Fresh weight inhibition rate<20%) | 80 to 100% | 80 to 100% | 80 to 100% | 80 to 100% | 80 to 100% | 80 to 100% |  |  |  |  |  |  |  |  |  |  | 
